Experimental data published in patent US11524938B2, “Aromatic sulfonamide derivatives” (Bayer Pharma Aktiengesellschaft, priority 2016, dated 2022).

Molecular target: T1, human P2X4 (Homo sapiens, UniProt Q99571)
T1 sequence (Q99571 1-388): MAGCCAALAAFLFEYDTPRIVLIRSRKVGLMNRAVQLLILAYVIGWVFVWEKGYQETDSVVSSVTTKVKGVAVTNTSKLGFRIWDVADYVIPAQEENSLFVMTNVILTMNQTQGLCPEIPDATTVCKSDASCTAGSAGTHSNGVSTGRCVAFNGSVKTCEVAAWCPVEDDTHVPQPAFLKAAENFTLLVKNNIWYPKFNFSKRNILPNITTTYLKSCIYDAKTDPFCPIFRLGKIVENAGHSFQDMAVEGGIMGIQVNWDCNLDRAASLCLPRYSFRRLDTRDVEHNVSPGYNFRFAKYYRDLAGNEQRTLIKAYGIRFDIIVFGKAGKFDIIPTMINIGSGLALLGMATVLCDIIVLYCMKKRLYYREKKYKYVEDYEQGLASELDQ
Experiment: Human P2X4 HEK Cell FLIPR Assay
Format: cell-based
Details: agonist Bz-ATP at EC80; for Emax: HEK293, HEK293 cells, percentage of maximal inhibition, read-out: Human P2X4 HEK Cells (FLIPR Assay) avg Efficacy [%]; for IC50: HEK293 cells, individual values listed where some fall outside detection range
Summary of the method: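 Calcium flux read by FLIPR for 120 sec after Bz-ATP challenge at EC80 (established each assay day), following 30 min room-temperature compound preincubation in dye-loaded stable human P2X4 HEK293 cells. Peak RFU over basal normalized to agonist control; IC50, maximal inhibition and Hill coefficient from triplicate means.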

NS(=O)(=O)c1cc(NC(=O)Cc2ccccc2Cl)ccc1-n1cc(NCC(F)(F)F)cn1 [Example 515, 2-(2-Chlorophenyl)-N-(3-sulfamoyl-4-{4-[(2,2,2-trifluoroethyl)amino]-1H-pyrazol-1-yl}phenyl)acetamide]
Emax: 101%
IC50: 45 nM

Cc1c(-c2ccc(NC(=O)Cc3ccccc3Cl)cc2S(N)(=O)=O)cnn1-c1ccccc1 [Example 363, 2-(2-Chlorophenyl)-N-[4-(5-methyl-1-phenyl-1H-pyrazol-4-yl)-3-sulfamoylphenyl]-acetamide]
Emax: 110%
IC50: 108 nM

CN(C)CCNC(=O)c1cccc(-c2ccc(NC(=O)Cc3ccccc3Cl)cc2S(N)(=O)=O)c1 [Example 364, 4′-{[(2-Chlorophenyl)acetyl]amino}-N-[2-(dimethylamino)ethyl]-2′-sulfamoylbiphenyl-3-carboxamide]
Emax: 77%
IC50: 715 nM

Cc1ccc(F)c(CC(=O)Nc2ccc(-n3cc(C(F)(F)F)cn3)c(S(N)(=O)=O)c2)c1Cl [Example 132, 2-(2-Chloro-6-fluoro-3-methylphenyl)-N-{3-sulfamoyl-4-[4-(trifluoromethyl)-1H-pyrazol-1-yl]phenyl}acetamide]
Emax: 62%
IC50: 80 nM

NS(=O)(=O)c1cc(NC(=O)Cc2ccccc2OC(F)F)ccc1-n1cc(Cl)cn1 [Example 91, N-[4-(4-Chloro-1H-pyrazol-1-yl)-3-sulfamoylphenyl]-2-[2-(difluoromethoxy)-phenyl]acetamide]
Emax: 94%
IC50: 169 nM

NS(=O)(=O)c1cc(NC(=O)Cc2ccccc2Cl)ccc1-c1noc(C2CC2)n1 [Example 520, 2-(2-Chlorophenyl)-N-[4-(5-cyclopropyl-1,2,4-oxadiazol-3-yl)-3-sulfamoylphenyl]acetamide]
Emax: 76%
IC50: 43 nM

CC(C)(C)n1cc(-c2ccc(NC(=O)Cc3ccccc3F)cc2S(N)(=O)=O)cn1 [Example 346, N-[4-(1-tert-Butyl-1H-pyrazol-4-yl)-3-sulfamoylphenyl]-2-(2-fluorophenyl)acetamide]
Emax: 105%
IC50: 46 nM

CC(C)(O)c1cc(F)cc(-c2ccc(NC(=O)Cc3ccccc3F)cc2S(N)(=O)=O)c1 [Example 347, N-[3′-Fluoro-5′-(2-hydroxypropan-2-yl)-2-sulfamoylbiphenyl-4-yl]-2-(2-fluorophenyl)acetamide]
Emax: 89%
IC50: 85 nM

NS(=O)(=O)c1cc(NC(=O)Cc2c(Cl)cccc2C(F)(F)F)ccc1-n1cc(Cl)cn1 [Example 103, N-[4-(4-Chloro-1H-pyrazol-1-yl)-3-sulfamoylphenyl]-2-[2-chloro-6-(trifluoromethyl)-phenyl]acetamide]
Emax: 103%
IC50: 174 nM

Cc1ccn(-c2ccc(NC(=O)Cc3ccccc3Cl)cc2S(N)(=O)=O)n1 [Example 273, 2-(2-Chlorophenyl)-N-[4-(3-methyl-1H-pyrazol-1-yl)-3-sulfamoylphenyl]acetamide]
Emax: 60%
IC50: 35 nM

Cc1nc(Cl)ncc1-c1ccc(NC(=O)Cc2ccccc2Cl)cc1S(N)(=O)=O [Example 317, N-[4-(2-Chloro-4-methylpyrimidin-5-yl)-3-sulfamoylphenyl]-2-(2-chlorophenyl)acetamide]
Emax: 68%
IC50: 1210 nM

N#Cc1cnn(-c2ccc(NC(=O)Cc3ccc(F)cc3)cc2S(N)(=O)=O)c1 [Example 192, N-[4-(4-Cyano-1H-pyrazol-1-yl)-3-sulfamoylphenyl]-2-(4-fluorophenyl)acetamide]
Emax: 69%
IC50: 575 nM

NS(=O)(=O)c1cc(NC(=O)Cc2cccc(F)c2F)ccc1-n1cc(C(F)(F)F)cn1 [Example 122, 2-(2,3-Difluorophenyl)-N-{3-sulfamoyl-4-[4-(trifluoromethyl)-1H-pyrazol-1-yl]phenyl}-acetamide]
Emax: 88%
IC50: 266 nM

N#Cc1cnn(-c2ccc(NC(=O)Cc3ccccc3Cl)c(C(F)(F)F)c2S(N)(=O)=O)c1 [Example 487, 2-(2-Chlorophenyl)-N-[4-(4-cyano-1H-pyrazol-1-yl)-3-sulfamoyl-2-(trifluoromethyl)phenyl]acetamide]
Emax: 45%
IC50: > 25000 nM

NS(=O)(=O)c1cc(NC(=O)C(F)(F)c2ccccc2Cl)ccc1-n1cnc(C(F)(F)F)n1 [Example 61, 2-(2-Chlorophenyl)-2,2-difluoro-N-{3-sulfamoyl-4-[3-(trifluoromethyl)-1H-1,2,4-triazol-1-yl]phenyl}acetamide]
Emax: 79%
IC50: 400 nM

NS(=O)(=O)c1cc(NC(=O)Cc2c(F)ccc(F)c2Cl)ccc1-n1cc(Cl)cn1 [Example 96, 2-(2-Chloro-3,6-difluorophenyl)-N-[4-(4-chloro-1H-pyrazol-1-yl)-3-sulfamoylphenyl]-acetamide]
Emax: 83%
IC50: 233 nM

NS(=O)(=O)c1cc(NC(=O)Cc2ccccc2Cl)ccc1-n1cc(Cl)c(C(F)(F)F)n1 [Example 541, 2-(2-Chlorophenyl)-N-{4-[4-chloro-3-(trifluoromethyl)-1H-pyrazol-1-yl]-3-sulfamoylphenyl}acetamide]
Emax: 50%
IC50: > 25000 nM

NS(=O)(=O)c1cc(NC(=O)Cc2ccccc2C(F)F)ccc1-c1cnn(C(F)F)c1 [Example 225, 2-[2-(Difluoromethyl)phenyl]-N-{4-[1-(difluoromethyl)-1H-pyrazol-4-yl]-3-sulfamoyl-phenyl}acetamide]
Emax: 91%
IC50: 70 nM

NS(=O)(=O)c1cc(NC(=O)Cc2ccccc2Cl)ccc1-n1ccc(C2CC2)n1 [Example 252, 2-(2-Chlorophenyl)-N-[4-(3-cyclopropyl-1H-pyrazol-1-yl)-3-sulfamoylphenyl]-acetamide]
Emax: 88%
IC50: 808 nM

NS(=O)(=O)c1cc(NC(=O)Cc2ccccc2Cl)ccc1-c1noc(C(F)(F)F)n1 [Example 261, 2-(2-Chlorophenyl)-N-{3-sulfamoyl-4-[5-(trifluoromethyl)-1,2,4-oxadiazol-3-yl]phenyl}acetamide]
Emax: 81%
IC50: 111 nM

NS(=O)(=O)c1cc(NC(=O)Cc2c(Cl)cccc2Cl)ccc1-n1cc(C(F)(F)F)cn1 [Example 116, 2-(2,6-Dichlorophenyl)-N-{3-sulfamoyl-4-[4-(trifluoromethyl)-1H-pyrazol-1-yl]phenyl}-acetamide]
Emax: 75%
IC50: 155 nM

NS(=O)(=O)c1cc(NC(=O)Cc2ccccc2F)ccc1-c1cncc(C(F)(F)F)c1 [Example 221, 2-(2-Fluorophenyl)-N-{3-sulfamoyl-4-[5-(trifluoromethyl)pyridin-3-yl]phenyl}-acetamide]
Emax: 63%
IC50: 40 nM

N#Cc1cnn(-c2ccc(NC(=O)Cc3ccccc3OC(F)F)cc2S(N)(=O)=O)c1 [Example 203, N-[4-(4-Cyano-1H-pyrazol-1-yl)-3-sulfamoylphenyl]-2-[2-(difluoromethoxy)phenyl]-acetamide]
Emax: 86%
IC50: 99 nM

COc1ccccc1CC(=O)Nc1ccc(-n2cnc(C(F)(F)F)n2)c(S(N)(=O)=O)c1 [Example 53, 2-(2-Methoxyphenyl)-N-{3-sulfamoyl-4-[3-(trifluoromethyl)-1H-1,2,4-triazol-1-yl]-phenyl}acetamide]
Emax: 52%
IC50: 169 nM

NS(=O)(=O)c1cc(NC(=O)Cc2ccc(C(F)F)cc2)ccc1-n1ncc(C(F)(F)F)n1 [Example 410, 2-[4-(Difluoromethyl)phenyl]-N-{3-sulfamoyl-4-[4-(trifluoromethyl)-2H-1,2,3-triazol-2-yl]phenyl}acetamide]
Emax: 69%
IC50: 5450 nM

NS(=O)(=O)c1c(-c2cnn(C(F)F)c2)ccc(NC(=O)Cc2ccccc2Cl)c1F [Example 493, 2-(2-Chlorophenyl)-N-{4-[1-(difluoromethyl)-1H-pyrazol-4-yl]-2-fluoro-3-sulfamoylphenyl}acetamide]
Emax: 90%
IC50: 228 nM

Cc1cc(-c2ccc(NC(=O)Cc3ccccc3Cl)cc2S(N)(=O)=O)cnn1 [Example 294, 2-(2-Chlorophenyl)-N-[4-(6-methylpyridazin-4-yl)-3-sulfamoylphenyl]acetamide]
Emax: 75%
IC50: 174 nM

N#Cc1cnn(-c2ccc(NC(=O)Cc3cccc(F)c3F)cc2S(N)(=O)=O)c1 [Example 200, N-[4-(4-Cyano-1H-pyrazol-1-yl)-3-sulfamoylphenyl]-2-(2,3-difluorophenyl)acetamide]
Emax: 90%
IC50: 131 nM

CC(C)(O)c1cnn(-c2ccc(NC(=O)Cc3ccccc3F)cc2S(N)(=O)=O)c1 [Example 237, 2-(2-Fluorophenyl)-N-{4-[4-(2-hydroxypropan-2-yl)-1H-pyrazol-1-yl]-3-sulfamoyl-phenyl}acetamide]
Emax: 72%
IC50: 1890 nM

NS(=O)(=O)c1cc(NC(=O)Cc2ccccc2Cl)ccc1-n1cnc(C(F)F)n1 [Example 17, 2-(2-Chlorophenyl)-N-{4-[3-(difluoromethyl)-1H-1,2,4-triazol-1-yl]-3-sulfamoyl-phenyl}acetamide]
Emax: 89%
IC50: 288 nM

N#Cc1cnn(-c2ncc(NC(=O)Cc3ccccc3Cl)cc2S(N)(=O)=O)c1 [Example 383, 2-(2-Chlorophenyl)-N-[6-(4-cyano-1H-pyrazol-1-yl)-5-sulfamoylpyridin-3-yl]acetamide]
Emax: 93%
IC50: 45 nM
